Laboratory results as given in ChEMBL document CHEMBL1148886, “Synthesis and antibacterial activity of 3-keto-6-O-carbamoyl-11,12-cyclic thiocarbamate erythromycin A derivatives” (2007).
Converted amounts (≈) assume the structure as drawn.

How the values were obtained:
Type in all cases: functional
Staphylococcus aureus = assay: Antibacterial activity against erythromycin-susceptible Staphylococcus aureus OC4172 by broth microdilution method
Haemophilus influenzae = assay: Antibacterial activity against Haemophilus influenzae OC4882 by broth microdilution method
Streptococcus pneumoniae [1] = assay: Antibacterial activity against erythromycin-susceptible Streptococcus pneumoniae OC9132 by broth microdilution method
Streptococcus pneumoniae [2] = assay: Antibacterial activity against erythromycin-resistant Streptococcus pneumoniae OC4051 containing erm(B) by broth microdilution method
Streptococcus pneumoniae [3] = assay: Antibacterial activity against erythromycin-resistant Streptococcus pneumoniae OC4438 containing mef(A) by broth microdilution method

Structure (SMILES) | MIC (Staphylococcus aureus) [µg/mL] | MIC (Haemophilus influenzae) [µg/mL] | MIC (Streptococcus pneumoniae [1]) [µg/mL] | MIC (Streptococcus pneumoniae [2]) [µg/mL] | MIC (Streptococcus pneumoniae [3]) [µg/mL]
CC[C@H]1OC(=O)[C@H](C)C(=O)[C@H](C)[C@@H](O[C@@H]2O[C@H](C)C[C@H](N(C)C)[C@H]2O)[C@](C)(OC)C[C@@H](C)C(=O)[C@H](C)[C@H]2N(CCCCn3cnc(-c4cccnc4)c3)C(=O)O[C@]12C [TELITHROMYCIN] | 0.25 (≈ 0.308 µM) | 2 (≈ 2.46 µM) | 0.03 (≈ 0.0369 µM) | 0.06 (≈ 0.0739 µM) | 0.25 (≈ 0.308 µM)
CC[C@H]1OC(=O)[C@H](C)[C@@H](O[C@H]2C[C@@](C)(OC)[C@@H](O)[C@H](C)O2)[C@H](C)[C@@H](O[C@@H]2O[C@H](C)C[C@H](N(C)C)[C@H]2O)[C@](C)(O)C[C@@H](C)C(=O)[C@H](C)[C@@H](O)[C@]1(C)O [ERYTHROMYCIN] | 0.5 (≈ 0.681 µM) | 8 (≈ 10.9 µM) | 0.06 (≈ 0.0818 µM) | > 16 | 4 (≈ 5.45 µM)
CC[C@H]1OC(=O)[C@H](C)C(=O)[C@H](C)[C@@H](O[C@@H]2O[C@H](C)C[C@H](N(C)C)[C@H]2O)[C@](C)(OC(N)=O)C[C@@H](C)C(=O)[C@H](C)[C@@H]2NC(=S)O[C@]12C | 4 (≈ 6.08 µM) | 8 (≈ 12.2 µM) | 0.25 (≈ 0.38 µM) |  | 
